This note sets out measurements from ChEMBL document CHEMBL3244379, “Stereochemical studies on medicinal agents. 23. Synthesis and biological evaluation of 6-amino derivatives of naloxone and naltrexone” (J Med Chem, 1977).

Active and inactive are the calls of the source. The calls are words filed in the database; no cut-off is given here.

Experiment [1] concerns the target T1, Opioid receptors; mu/kappa/delta (Homo sapiens, UniProt P41145+P41143+P35372). The experiment is described as follows: Displacement of [3H] naloxone from opioid receptor (unknown origin). (In a radioligand displacement assay an active substance lowers the binding of a labelled ligand.)
The target of experiment [2] is T1, Opioid receptors; mu/kappa/delta. Nature of the experiment: Displacement of [3H] naloxone from opioid receptor (unknown origin) in presence of 100 mM NaCl.
Experiment [3] relates to Mus musculus. The experiment is described as follows: Antinociceptive activity in Swiss Webster mouse at 1.6 mg/kg, sc by tail-flick assay. The format is functional, organism-based. Also on record: dose 1.6 mg/kg.
Experiment [4] deals with Mus musculus. The experiment is described as follows: Antinociceptive activity in sc dosed Swiss Webster mouse by tail-flick assay. The format is functional. On the technique in general: Thermal pain tests record how soon the animal reacts.
In experiment [5] the test system is Mus musculus. Nature of the experiment: Antinociceptive activity in Swiss Webster mouse at 5.12 mg/kg, sc by tail-flick assay. The format is functional. The note with it: route subcutaneous.

In the case of `C=CCN1CC[C@]23c4c5ccc(O)c4O[C@H]2[C@@H](N)CC[C@@]3(O)[C@H]1C5.Cl`, the IC50 in experiment [1] is recorded as 1.4 ×10⁻⁷ M; in experiment [2] it was 1.1 ×10⁻⁷ M. Besides, in experiment [3], the inhibition result was “inactive”.

In the case of `CN1CC[C@]23c4c5ccc(O)c4O[C@H]2[C@@H](O)C=C[C@H]3[C@H]1C5.Cl` [MORPHINE HYDROCHLORIDE], the 50% effective dose (ED50) (usually the dose at which the effect has come halfway, by size or by number of responders) in experiment [4] turned out to be 0.33 mg/kg.

Consider `Cl.N[C@H]1CC[C@@]2(O)[C@H]3Cc4ccc(O)c5c4[C@@]2(CCN3CC2CC2)[C@H]1O5`, for which the IC50 in experiment [1] is 2.9 nM; in experiment [2] it was 9 nM. Besides, the inhibition in vivo – broadly, the drop in the measured response relative to a control, in per cent – at 5.12 mg/kg in experiment [5] turned out to be 18%.

Consider `C=CCN1CC[C@]23c4c5ccc(O)c4O[C@H]2[C@H](N)CC[C@@]3(O)[C@H]1C5.Cl`, for which the results for the IC50 in experiment [1] and in experiment [2] were 8.6 ×10⁻⁸ M and 5.3 ×10⁻⁸ M, respectively. In experiment [4], the median effective dose (ED50) turned out to be 4.9 mg/kg.

For the compound `Cl.N[C@@H]1CC[C@@]2(O)[C@H]3Cc4ccc(O)c5c4[C@@]2(CCN3CC2CC2)[C@H]1O5`, the figures for the IC50 in experiment [1] and in experiment [2] were 9.1 ×10⁻¹⁰ M and 7 ×10⁻¹⁰ M, respectively. Also, the inhibition in vivo at 5.12 mg/kg in experiment [5] stood at 27%.
